Results taken from patent US4278596A, “Analgesic pentapeptides” (American Home Products Corporation, priority 1978, dated 1981).

Experiments:
[1] = system: rats; assay: rat-tail flick method of D'Amour and Smith; format: in vivo; conditions: 5.0 mg/kg. i.v.
Protocol: In this procedure, a representative polypeptide of this invention, N-Me-Tyr-D-Ser-Gly-N-Me-Phe-D-Ser-NH2,acetate, produced significant analgesia in rats upon administration at a dose as low as 0.1 mg/kg. intravenously, and 0.5 mg/kg. subcutaneously.
When N-Me-Tyr-D-Ser-Gly-N-Me-Phe-D-Ser-NH2, acetate was tested in the rat-tail flick procedure of D'Amour and Smith (supra), the following results were obtained: […]

[2] = system: mouse vas deferns; conditions: mouse vas deferens, like morphine; cited from earlier work
[3] = system: guinea pig ileum; conditions: like morphine; cited from earlier work
[4] = system: opiate receptor; conditions: brain homogenates; cited from earlier work

Compound | dead [1] | effect on electrically evoked contractions [2] | effect on electrically evoked contractions [3] | effect on stereospecific receptor binding of 3H-naloxone [4]
CN[C@@H](Cc1ccc(O)cc1)C(=O)N[C@H](CO)C(=O)NCC(=O)N(C)[C@@H](Cc1ccccc1)C(=O)N[C@H](CO)C(N)=O [N-Methyl-Tyrosyl-D-Serylglycyl-N-MethylPhenylalanyl-D-Serinamide. Acetate] | 3/6 |  |  | 
H-Tyr-Gly-Gly-Phe-Leu-OH [leucine-enkephalin] |  | block electrically evoked contractions | block electrically evoked contractions | inhibit
H-Tyr-Gly-Gly-Phe-Met-OH [methionine-enkephalin] |  | block electrically evoked contractions | block electrically evoked contractions | inhibit
